# Key:
# Type in all cases: in vivo
# Settings in all cases: 100 = 100% disease control, 0 = no control
# Botrytis cinerea = test: Test E: preventive spray on tomato seedlings, tomato Botrytis disease rating
# In short: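 Tomato seedlings sprayed to run-off with compound suspended in acetone/water with PEG400 surfactant, then inoculated next day with Botrytis cinerea spores. Held 48 h saturated at 20 °C, then 3 days at 24 °C; disease rated visually, 0 to 100% control relative to controls.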
# Phakopsora pachyrhizi = test: Test D: preventive spray on soybean seedlings, Asian soybean rust disease rating
# In short: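 Compounds in acetone/water (50/50) with 50–250 ppm PEG400 sprayed to run-off on soybean seedlings; inoculated next day with P. pachyrhizi spores, held 24 h saturated at 22° C, then 8 days at 22° C before visual disease rating.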
# Alternaria solani = test: Test F: preventive spray on tomato seedlings, tomato early blight disease rating
# In short: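 Tomato seedlings were sprayed to run-off with compound suspensions in ppm (acetone/water with PEG400 surfactant) and inoculated with Alternaria solani spores the next day. Plants were held 48 h saturated at 27 °C, then 3 days at 20 °C. Disease was rated visually, with 100 as full control and 0 as none, relative to controls.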
# [1] = tested on: Blumeria graminis f. sp. Tritici; test: Test C: preventive spray on wheat seedlings, wheat powdery mildew disease rating
# In short: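 Wheat seedlings sprayed to run-off with test suspension (acetone 3% dissolution, then acetone/water 50/50 with 50–250 ppm PEG400), inoculated next day with Blumeria graminis spore dust. Held 8 days at 20° C in growth chamber, then visually rated (100 = full control, 0 = none, relative to controls).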
# Zymoseptoria tritici = test: Test A: preventive spray on wheat seedlings, wheat leaf blotch disease rating
# In short: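 Compounds in acetone/water (50/50) with 50–250 ppm PEG400, sprayed to run-off on wheat seedlings. Inoculated next day with Z. tritici spores, 48 h saturated atmosphere at 24 °C, then 17 days at 20 °C before disease rating.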
# [2] = tested on: Puccinia recondita f. sp. Tritici; test: Test B: preventive spray on wheat seedlings, wheat leaf rust disease rating
# In short: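 Compounds in acetone/water (50/50) with 50-250 ppm PEG400 sprayed to run-off on wheat seedlings; inoculated with P. recondita spores next day. Held 24 h saturated at 20° C., then 7 days in growth chamber at 20° C. before rating; 100 = full control, 0 = none versus controls.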
SMILES,Test E disease control rating (Botrytis cinerea; 50 ppm),Test D disease control rating (Phakopsora pachyrhizi; 50 ppm),Test F disease control rating (Alternaria solani; 50 ppm),Test C disease control rating ([1]; 50 ppm),Test A disease control rating (Zymoseptoria tritici; 50 ppm),Test B disease control rating ([2]; 50 ppm),further results
COc1cc(OC)c(Br)c(-c2c(-c3ccc(F)cc3F)noc(=O)c2C)c1 [Compound 63],97%,0%,0%,56%,100%,100%,
"COc1cc(-c2cc(C#N)c(=O)n(C)c2-c2c(F)cc(F)cc2F)cc(OC)c1Cl [Compound 71, 5-(4-chloro-3,5-dimethoxyphenyl)-1,2-dihydro-1-methyl-2-oxo-6-(2,4,6-trifluorophenyl)-3-pyridinecarbonitrile]",,,,,,,"pest or weed control at 50 ppm (Botrytis cinerea; Botrytis cinerea, 120 h, 50 ppm): 63%; pest or weed control at 50 ppm (Phakopsora pachyrhizi; Phakopsora pachyrhizi, 216 h, 50 ppm): 92%; pest or weed control at 50 ppm (Alternaria solani; Alternaria solani, 120 h, 50 ppm): 0%; pest or weed control at 50 ppm ([1]; Blumeria graminis, 192 h, 50 ppm): 47%; pest or weed control at 50 ppm (Zymoseptoria tritici; Zymoseptoria tritici, 456 h, 50 ppm): 87%; pest or weed control at 50 ppm ([2]; Puccinia recondita, 192 h, 50 ppm): 99%"
CCn1c(-c2c(F)cc(F)cc2F)c(-c2cc(OC)c(Cl)c(OC)c2)cc(C#N)c1=O [Compound 72],90%,77%,0%,21%,93%,98%,
CCOC(=O)c1nn(-c2cc(OC)ccc2Cl)c(-c2ccc(F)cc2F)c(C(=O)OCC)c1=O [Compound 81],0%,0%,0%,0%,0%,19%,
CCOC(=O)c1nn(-c2cc(OC)ccc2Cl)c(-c2ccc(F)cc2)c(C(=O)OCC)c1=O [Compound 82],0%,0%,0%,0%,3%,28%,
COc1cc(OC)c(Cl)c(-n2nc(C#N)c(=O)c(C)c2-c2ccc(F)cc2Cl)c1 [Compound 83],94%,100%,100%,98%,99%,100%,
COc1cc(OC)c(Cl)c(-n2nc(C)c(=O)c(C)c2-c2ccc(F)cc2Cl)c1 [Compound 84],94%,100%,100%,99%,100%,100%,
COc1cc(OC)c(Cl)c(-n2nc(CF)c(=O)c(C)c2-c2ccc(F)cc2Cl)c1 [Compound 85],93%,100%,100%,99%,100%,100%,
COc1cc(OC)c(Cl)c(-n2nc(NC(=O)OC(C)(C)C)c(=O)c(C)c2-c2ccc(F)cc2Cl)c1 [Compound 86],,,,,,,Test E disease control rating (Botrytis cinerea; 250 ppm): 43%; Test D disease control rating (Phakopsora pachyrhizi; 250 ppm): 0%; Test F disease control rating (Alternaria solani; 250 ppm): 0%; Test C disease control rating ([1]; 250 ppm): 0%; Test A disease control rating (Zymoseptoria tritici; 250 ppm): 83%; Test B disease control rating ([2]; 250 ppm): 98%
COc1cc(OC)c(Cl)c(-n2nc(N)c(=O)c(C)c2-c2ccc(F)cc2Cl)c1 [Compound 87],96%,100%,99%,96%,100%,98%,
CCOC(=O)c1nn(-c2cc(OC)cc(OC)c2)c(-c2ccc(F)cc2F)c(C(=O)OCC)c1=O [Compound 88],,,,,,,Test E disease control rating (Botrytis cinerea; 250 ppm): 0%; Test D disease control rating (Phakopsora pachyrhizi; 250 ppm): 0%; Test F disease control rating (Alternaria solani; 250 ppm): 0%; Test C disease control rating ([1]; 250 ppm): 0%; Test A disease control rating (Zymoseptoria tritici; 250 ppm): 0%; Test B disease control rating ([2]; 250 ppm): 0%
CCOC(=O)c1c(-c2ccc(F)cc2F)n(-c2cc(OC)cc(OC)c2)nc(C(=O)O)c1=O [Compound 89],,,,,,,Test E disease control rating (Botrytis cinerea; 250 ppm): 0%; Test D disease control rating (Phakopsora pachyrhizi; 250 ppm): 0%; Test F disease control rating (Alternaria solani; 250 ppm): 0%; Test C disease control rating ([1]; 250 ppm): 0%; Test A disease control rating (Zymoseptoria tritici; 250 ppm): 0%; Test B disease control rating ([2]; 250 ppm): 0%
COc1cc(OC)cc(-n2nc(CF)c(=O)c(C)c2-c2ccc(F)cc2Cl)c1 [Compound 90],99%,100%,99%,97%,99%,100%,
COc1cc(OC)cc(-n2nc(CO)c(=O)c(C)c2-c2ccc(F)cc2Cl)c1 [Compound 91],,,,,,,Test E disease control rating (Botrytis cinerea; 250 ppm): 79%; Test D disease control rating (Phakopsora pachyrhizi; 250 ppm): 75%; Test F disease control rating (Alternaria solani; 250 ppm): 17%; Test C disease control rating ([1]; 250 ppm): 0%; Test A disease control rating (Zymoseptoria tritici; 250 ppm): 0%; Test B disease control rating ([2]; 250 ppm): 99%
COc1cc(OC)c(Cl)c(-n2nc(I)c(=O)c(C)c2-c2ccc(F)cc2Cl)c1 [Compound 96],98%,100%,100%,99%,100%,100%,
CCOC(=O)c1nn(-c2cc(OC)cc(OC)c2Cl)c(-c2ccc(F)cc2Cl)c(C)c1=O [Compound 98],,,,,,,Test E disease control rating (Botrytis cinerea; 250 ppm): 96%; Test D disease control rating (Phakopsora pachyrhizi; 250 ppm): 94%; Test F disease control rating (Alternaria solani; 250 ppm): 0%; Test C disease control rating ([1]; 250 ppm): 0%; Test A disease control rating (Zymoseptoria tritici; 250 ppm): 0%; Test B disease control rating ([2]; 250 ppm): 98%
COc1cc(OC)c(Cl)c(-n2nc(CO)c(=O)c(Cl)c2-c2ccc(F)cc2Cl)c1 [Compound 99],,,,,,,Test E disease control rating (Botrytis cinerea; 250 ppm): 93%; Test D disease control rating (Phakopsora pachyrhizi; 250 ppm): 99%; Test F disease control rating (Alternaria solani; 250 ppm): 96%; Test C disease control rating ([1]; 250 ppm): 95%; Test A disease control rating (Zymoseptoria tritici; 250 ppm): 100%; Test B disease control rating ([2]; 250 ppm): 100%
COc1ccc(Cl)c(-n2nc(Br)c(=O)c(Cl)c2-c2ccc(F)cc2Cl)c1 [Compound 101],98%,99%,98%,89%,98%,99%,
COc1ccc(Cl)c(-n2nc(Br)c(=O)c(Br)c2-c2ccc(F)cc2Cl)c1 [Compound 102],99%,99%,88%,0%,97%,99%,
COc1ccc(Cl)c(-n2nc(Cl)c(=O)c(Cl)c2-c2ccc(F)cc2Cl)c1 [Compound 103],100%,100%,99%,97%,100%,100%,
COc1ccc(Cl)c(-n2nc(OC)c(=O)cc2-c2ccc(F)cc2Cl)c1 [Compound 118],97%,0%,0%,56%,80%,99%,
COC(=O)c1nn(-c2cc(OC)ccc2Cl)c(-c2ccccc2F)c(Cl)c1=O [Compound 122],0%,0%,0%,0%,0%,19%,
"COc1ccc(Cl)c(-n2nc(C)c(=O)c(Cl)c2-c2ccc(F)cc2Cl)c1 [Compound 123, 5-chloro-1-(2-chloro-5-methoxyphenyl)-6-(2-chloro-4-fluorophenyl)-3-methyl-4(1)-pyridazinone]",99%,100%,100%,100%,100%,100%,
"COc1ccc(Cl)c(-n2nc(C)c(=O)c(Br)c2-c2ccc(F)cc2Cl)c1 [Compound 124, 5-bromo-1-(2-chloro-5-methoxyphenyl)-6-(2-chloro-4-fluorophenyl)-3-methyl-4(1)-pyridazinone]",99%,100%,100%,100%,100%,100%,

# Reference: US20240308968A1, “FUNGICIDAL SUBSTITUTED HETEROCYCLES” (FMC Corporation, priority 2021, published 2024)
